Test results as given in ChEMBL document CHEMBL1149957, “MALONIC ACID DERIVATIVES AS SIALYL LEWIS X MIMETICS” (Bioorg Med Chem Lett, 1997).
pIC50: −log10 of the molar value.

Tests used:
HL-60 [1] = assay: Tested for the inhibition of HL60 cell adhesion to recombinant E-selectin-IgG fusion protein measured by cell culture assay.; format: functional, cell-based; conditions: Homo sapiens
HL-60 [2] = assay: Tested for the inhibition of HL60 cell adhesion to recombinant P-selectin-IgG fusion protein measured by cell culture assay.; format: functional, cell-based; conditions: Homo sapiens
Rattus norvegicus [3] = assay: Tested for the inhibition of leukocyte adhesion in rat mesenteric venules in vivo at a dose of 3 mg/kg measured by intravital microscopy.; format: functional
Rattus norvegicus [4] = assay: Tested for the inhibition of leukocyte adhesion in rat mesenteric venules in vivo at a dose of 10 mg/kg measured by intravital microscopy.; format: functional
Rattus norvegicus [5] = assay: Tested for the inhibition of leukocyte adhesion in rat mesenteric venules in vivo at a dose of 1 mg/kg measured by intravital microscopy.; format: functional

Compound	pIC50 (HL-60 [1])	pIC50 (HL-60 [2])	inhibition in vivo at 3 mg/kg (Rattus norvegicus [3]) [%]	inhibition in vivo at 10 mg/kg (Rattus norvegicus [4]) [%]	inhibition in vivo at 1 mg/kg (Rattus norvegicus [5]) [%]
CC1OC(OC2CCCCC2OCCCCCCCC(C(=O)O)C(=O)O)C(O)C(O)C1O (configuration not stated)	< 2.30	< 2.30			
CC1OC(OC2C(OCCCCCC(C(=O)O)C(=O)O)CCOC2COCCCCc2ccccc2)C(O)C(O)C1O (configuration not stated)	2.59	2.92	65		
CC1OC(OC2CCCCC2OCCCC(C(=O)O)C(=O)O)C(O)C(O)C1O (configuration not stated)	< 2.30	< 2.30			
CC1OC(OC2CCCCC2OCCCCC(C(=O)O)C(=O)O)C(O)C(O)C1O (configuration not stated)	< 2.30	< 2.30			
CC1OC(OC2C(OCCCCC(C(=O)O)C(=O)O)CCOC2COCCCCc2ccccc2)C(O)C(O)C1O (configuration not stated)	2.32	2.44	62		
CC1OC(OC2CCCCC2OC(=O)NCCCCC(C(=O)O)C(=O)O)C(O)C(O)C1O (configuration not stated)	2.40	2.35			
CC(=O)N[C@H]1[C@H]([C@@H](O)[C@@H](O)CO)O[C@@](O[C@@H]2[C@H](O)[C@H](O[C@H]3[C@H](O[C@@H]4O[C@@H](C)[C@@H](O)[C@H](O)[C@@H]4O)[C@H](NC(C)=O)C(O)O[C@H]3CO)O[C@@H](CO)[C@@H]2O)(C(=O)O)C[C@H]1O (some centres not stated)	2.82	2.52			
CC1OC(OC2CCCCC2OCCCCCCC(C(=O)O)C(=O)O)C(O)C(O)C1O (configuration not stated)	< 2.30	< 2.30			
CC1OC(OC2CCCCC2OCCCCCC(C(=O)O)C(=O)O)C(O)C(O)C1O (configuration not stated)	< 2.30	< 2.30			
CC1OC(OC2CCCCC2OCCCCCCCCC(C(=O)O)C(=O)O)C(O)C(O)C1O (configuration not stated)	< 2.30	< 2.30			
CC1OC(OC2CCCCC2OCCCCCCCCCCC(C(=O)O)C(=O)O)C(O)C(O)C1O (configuration not stated)	< 2.30	< 2.30			
CC1OC(OC2CCCCC2OC(=O)NCCC(C(=O)O)C(=O)O)C(O)C(O)C1O (configuration not stated)	2.47	2.46		58	
CC1OC(OC2CCCCC2OC(=O)NCCCC(C(=O)O)C(=O)O)C(O)C(O)C1O (configuration not stated)	3.00	3.15	44	85	54
